The test system of the test is BV-2. Description: Antiinflammatory activity in mouse BV2 cells assessed as inhibition of LPS-stimulated nitric oxide production by Griess reagent based spectrophotometric analysis. Type of test: functional, cell-based. In general terms: Griess reagent forms a coloured azo dye with nitrite.
With `CC(=O)O[C@H]1CC(C)=C2C(=O)C=C(C)[C@@H]2[C@H]2OC(=O)[C@@H](C)[C@@H]21`, the IC50 – broadly, the concentration at which inhibition is half-maximal – was above 100 µM.

Turning to `CC#Cc1cc(O)c(C(C)=O)s1`, the IC50 came out at 98.5 µM.

As to `C/C1=C\C[C@H](O)/C(C)=C/[C@H]2OC(=O)[C@H](C)[C@@H]2CC1`, the IC50 turned out to be 27.9 µM.

Regarding `CC1=CC[C@@H]([C@](C)(O)[C@H]2CC[C@@]3(C)[C@@H]4C[C@@H](O)[C@H]5C(C)(C)OC(=O)C=C[C@@]56C[C@@]46CC[C@]23C)OC1=O`, the IC50 is above 100 µM.

In the case of `CC(=O)O[C@H]([C@@H]1C=C(C)C(=O)O1)[C@@H](C)C1[C@@H]2[C@@]3(O)O[C@@]4(CC[C@]12C)C(O)[C@]12OC(=O)C[C@H]1OC(C)(C)[C@@H]2CC[C@H]4C3=O` (stereo partly drawn), the IC50 came to 11.9 µM.

As to `C/C=C(/C)C(=O)O[C@@H]1C[C@H]2C(C)(C)O[C@@H]3CC(=O)O[C@@]32C[C@@]2(O)C[C@H](O)[C@]34O[C@@]5(C=C(C)C(=O)O5)C[C@@H](C)[C@H]3C[C@@H]3O[C@@]34[C@H]12`, the IC50 is above 100 µM.

Consider `CC(=O)O[C@H]1C[C@]2(C)O[C@@]23C(=O)C=C(C)C3[C@H]2OC(=O)[C@H](C)[C@H]12` (stereo partly drawn), for which the IC50 was found to be 6.5 µM.

With `C=C1CC[C@@H](C(C)C)/C=C/C(=O)CC[C@H]1O`, the IC50 was above 100 µM.

`CC1=C(CC[C@@H](C)O)C(C)(C)C[C@H](O)C1`: the IC50 is above 100 µM.

For `CC(=O)O[C@H]([C@@H]1CC(C)C(=O)O1)[C@@H](C)C1[C@@H]2[C@@]3(O)O[C@@]4(CC[C@]12C)C(O)[C@]12OC(=O)C[C@H]1OC(C)(C)[C@@H]2CC[C@H]4C3=O` (stereo partly drawn), the IC50 was found to be 10.1 µM.

As to `CC#Cc1ccc(C(=O)O)s1`, the IC50 is 79.5 µM.

With `CC1=CC(=O)[C@]23O[C@@]2(C)C[C@H](O)[C@@H]2[C@H](OC(=O)[C@@H]2C)[C@@H]13`, the IC50 was above 100 µM.

For the molecule `O=c1c(O)c(-c2ccc(O)c(O)c2)oc2cc(O)cc(O)c12` [QUERCETIN], the IC50 is 16.3 µM.

Source of the values: ChEMBL document CHEMBL4177683, “New terpenoids and thiophene derivatives from the aerial parts of Artemisia sieversiana” (Bioorg Med Chem Lett, 2017).
